Results from patent publication US20070185060A1, “Boronic acid thrombin inhibitors” (TRIGEN LIMITED, priority 2004, published 2007).
Each block holds one compound with its values, some of them ahead of it.

Legend:
thrombin = thrombin (Homo sapiens, UniProt P00734); assay: Thrombin inhibition, chromogenic substrate (Method A); assay type: biochemical
Method: 50 μl thrombin (33.3 ng/ml in assay buffer) and 20 μl vehicle or compound solution were added to 110 μl assay buffer (100 mM Na orthophosphate (80% Na2HPO4 and 20% NaH2PO4), 200 mM NaCl, 0.5% PEG 6000, 0.02% Na azide, pH 7.5) and incubated for 5 minutes at 37° C.

Trypsin [1] = tested on: T1, Trypsin; assay: Trypsin inhibition, chromogenic substrate (Method C); assay type: biochemical; conditions: Trypsin
T1 construct: IC50; other: Trypsin; Ki
Method: (§1) 50 μl Trypsin (20 ng/ml in assay buffer) and 20 μl vehicle or compound solution were added to 110 μl assay buffer (100 mM Na orthophosphate (80% Na2HPO4 and 20% NaH2PO4), 200 mM NaCl, 0.5% PEG 6000, 0.02% Na azide, pH 7.5) and incubated for 5 minutes at 37° C.

Trypsin [2] = assay: as above; assay type: biochemical; conditions: Trypsin versus thrombin
Method: as §1

Plasmin = Plasmin (Homo sapiens, UniProt P00747); assay: Plasmin inhibition, chromogenic substrate (Method B); assay type: biochemical
Sequence of Plasmin (P00747 581-810 limits assumed, species assumed): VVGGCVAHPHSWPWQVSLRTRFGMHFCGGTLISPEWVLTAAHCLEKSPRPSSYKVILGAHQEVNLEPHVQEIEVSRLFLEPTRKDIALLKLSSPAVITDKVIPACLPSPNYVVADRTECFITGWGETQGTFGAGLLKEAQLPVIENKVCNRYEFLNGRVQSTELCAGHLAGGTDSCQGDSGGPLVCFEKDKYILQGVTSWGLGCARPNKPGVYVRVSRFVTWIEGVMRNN
Sequence of Plasmin (P00747 97-580 partner limits assumed, species assumed): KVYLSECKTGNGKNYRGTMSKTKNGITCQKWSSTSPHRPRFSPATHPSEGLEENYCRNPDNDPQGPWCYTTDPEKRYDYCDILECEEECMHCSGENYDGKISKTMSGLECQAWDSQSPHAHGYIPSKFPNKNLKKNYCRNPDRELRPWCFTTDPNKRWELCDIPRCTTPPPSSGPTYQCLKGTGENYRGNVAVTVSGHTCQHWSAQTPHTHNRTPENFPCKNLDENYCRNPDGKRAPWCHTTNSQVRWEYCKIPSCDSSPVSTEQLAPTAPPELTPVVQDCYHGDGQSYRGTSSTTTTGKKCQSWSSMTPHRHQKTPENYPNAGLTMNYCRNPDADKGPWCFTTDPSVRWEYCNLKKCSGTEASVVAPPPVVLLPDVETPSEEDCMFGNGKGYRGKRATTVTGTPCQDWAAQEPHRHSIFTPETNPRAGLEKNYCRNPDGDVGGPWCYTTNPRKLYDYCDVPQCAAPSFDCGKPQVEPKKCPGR
Method: 50 μl Plasmin (75 ng/ml in assay buffer) and 20 μl vehicle or compound solution were added to 110 μl assay buffer (100 mM Na orthophosphate (80% Na2HPO4 and 20% NaH2PO4), 200 mM NaCl, 0.5% PEG 6000, 0.02% Na azide, pH 7.5) and incubated for 5 minutes at 37° C.

[3] = Solubility of TRI 50c monosodium salt at different pH values; assay type: physicochemical
Method: It may be desirable to make aqueous solutions of boronic acid drugs for administering them. […] However, a solution with a pH of 9.5 may be unacceptable or undesirable. Accordingly, a pharmaceutically acceptable organic acid may be included in the particulate formulation in an amount selected to reduce the pH to a value at which the solution is more acceptable but at which a solution of drinkable quantity (e.g. about 50 ml to about 150 ml) may be formed by reconstituting the particulate formulation. As the organic acid may be mentioned citric acid, tartaric acid or malic acid, for example. In many instances, citric acid is chosen.
In a first series of experiments, this amount of the salt was dissolved in 50 ml water to form a solution of approximately pH 9.5. Dilute aqueous HCl was added to determine how much the pH could be reduced before precipitation occurred.
In a second series of experiments, the same amount of the salt was dissolved in 150 ml water, and citric acid was added. […] Since acid solutions tend to be more palatable than alkaline ones, and citric acid is a common flavouring agent, this behaviour of the salt is highly beneficial. […] In general, it is contemplated that the boronate will be formulated to form a reconstituted solution having a pH of from 4 to 8, e.g. 4 to 7, optionally 5 to 6.

[4] = Stability under conditions of HPLC purity determination; assay type: physicochemical; conditions: sample preparation for HPLC

Structure (SMILES): COCCC[C@H](NC(=O)[C@@H]1CCCN1C(=O)[C@@H](Cc1ccc(F)cc1)NC(=O)OCc1ccccc1)B(O)O [TRI 50f, Cbz-4-F-Phe-Pro-boroMpg-OH]
IC50 (thrombin): < 0.1 µM
Ki (thrombin): < 0.075 µM
IC50 (Trypsin [1]): > 10 µM
Ki (Trypsin [1]): > 5 µM
Selectivity (Trypsin [2]): >100
IC50 (Plasmin; Plasmin): > 100 µM
Ki (Plasmin; Plasmin): > 100 µM
Selectivity (Plasmin; Plasmin versus thrombin): >1000

concentration of boronate salt solution that can be formed ([3]; aqueous solution at a pH of about 9.5): about 600 mg/ml
pH below which the salt tended to precipitate ([3]; salt equivalent to 600 mg TRI 50c in 50 ml water, dilute aqueous HCl added): below 9
pH to which solution could be reduced before precipitation occurred ([3]; salt equivalent to 600 mg TRI 50c in 150 ml water, citric acid added): 3.7-3.8
Structure (SMILES): COCCC[C@H](NC(=O)[C@@H]1CCCN1C(=O)[C@@H](Cc1ccccc1)NC(=O)OCc1ccccc1)B(O)O.[Na+] [TRI 50c monosodium salt, Cbz-(R)-Phe-(S)-Pro-(R)-Mpg-B(OH)2 monosodium salt]

stability under HPLC purity determination conditions [4]: not stable
Structure (SMILES): COCCCC(NC(=O)C1CCCN1C(=O)C(Cc1ccccc1)NC(=O)OCc1ccccc1)B1OCCNCCO1 (stereo not drawn) [TRI 50d]
